The numbers were not newly measured in US20220323445A1, “REDUCING IMMUNOGENICITY TO PEGLOTICASE” (Horizon Therapeutics Ireland DAC, priority 2020, published 2022), which cites them from elsewhere.

For series [1] the following is noted: patients treated with allopurinol; cited from earlier work.
The conditions of series [2]: prophylaxis of gout; cited from earlier work.

On to `Oc1ncnc2[nH]ncc12` [allopurinol], for which, in series [1], the “patients who develop allergic reactions” value was “Approximately 2%” and the severe hypersensitivity syndrome result is recorded as “about 0.4%”.
Consider `COc1cc2c(c(OC)c1OC)-c1ccc(OC)c(=O)cc1[C@@H](NC(C)=O)CC2` [colchicine], for which the pharyngolaryngeal pain in series [2] is listed as 3%.
